# Measured values taken from patent US20230105082A1, “ANTIMICROBIAL COMPOSITIONS FOR PET FOOD PRODUCTS” (priority 2020, published 2023).
# System: mixture in equal parts of Salmonella ser. Newport, Salmonella ser. Senftenberg, and Salmonella ser. Typhimurium
# Assay: Salmonella inhibition in inoculated poultry fat (Examples 2, 4 and 5)
# Type: cell-based, Salmonella enterica subsp. enterica
# Settings: 1000 ppm in fat; 1 month after inoculation
# Source text: Bacterial strains and culture medium Six serovars of Salmonella enterica subsp. enterica were used in these studies: Salmonella ser. Infantis (CIP103549), Salmonella ser. Mbandaka (CIP105859), and Salmonella ser. Senftenberg (isolate from pork/poultry from ANSES collection) for Example 1, Example 3 and Example 6 or Salmonella ser. Newport, Salmonella ser. Senftenberg, and Salmonella ser. Typhimurium (all isolated from pet food) for Example 2, Example 4, and Example 5. All strains were kept in collection at -80° C. in glycerol broth. Bacterial strains were cultured in Brain Heart Infusion agar and subcultured in Brain Heart Infusion broth at 37° C. for 20±2 h (BHI, VWR, USA). Salmonella count in poultry fat was carried out using Xylose Lysine Deoxycholate agar (XLD, VWR, USA) for Example 1, Example 3, and Example 6 or Violet Red Bile Glucose agar (VRBG, BioRad, USA) for Example 2, Example 4 and Example 5. Salmonella detection was done following modified EN ISO 6579-1 in 125 g of poultry fat.
# Inoculum preparation Two types of matrix inoculum were used. […]
# Antimicrobial efficacy of Compositions 5, 6, 7, 8, 16 was tested when added at 500 ppm in fat and compared to antimicrobial efficacy of phosphoric acid (Composition 1) when added at 1000 ppm in fat. The antimicrobial efficacy of Composition 16 at 1000 ppm in fat was also evaluated. […]
smiles,measurement,value
"O=P(O)(O)O [Composition 1, Phosphoric acid]",Salmonella detection,still detected
